biological target: T1, human PLC-β2 (Homo sapiens, UniProt Q00722); test: PLC assay using FlashPlates (96-well, immobilized [3H]PIP2 substrate); format: biochemical; details: purified recombinant human PLC-β2 or cytosolic human PLC-β2; hydrolysis of [3H]PIP2
T1 construct: made in house; host or cells: Sf9 cells (Spodoptera frugiperda), recombinant baculovirus
Description: The hydrolysis of phosphatidylinositol-4,5-bisphosphate (PIP2) by a specific phospholipase C-β2 (PLC-β2) produces two intracellular messengers, diacylglycerol (DAG) and inositol 1,4,5-trisphosphate (IP3), which mediate the activation of protein kinase C and intracellular Ca^2+ release. A conventional organic solvent extraction method is widely used for PLC assays to isolate IP3 from the substrate PIP2. The conventional PLC-β2 assay, however is terminated by addition of acidified organic solvents and subsequent extraction and phase separation. […] Accordingly, a preferred method to test the compounds of the present invention, was developed utilizing a 96-well plate assay for PLC-β2 using immobilized radiolabeled substrate to quantitatively measure the reduction in the substrate level without a need for organic solvent extraction. The automated PLC-β2 assay described herein provides a convenient method for quantitative measurement of phospholipase C activities in a high throughput fashion. Ninety-six well Phospholipid FlashPlates were coated with 0.2 mL of 50 mM Tris/HCl (pH 7.4), 0.01% Ac-BSA and 50,000 cpm of […] (phosphatidylinositol-4,5-bisphosphate) at 4° C. for 72 h. The wells were aspirated and washed twice with PBS. The reactions were conducted directly in the wells in PLC reaction buffer containing 50 mM Tris/HCl (pH 7.2), 2.75 mM EDTA (pH 7.3), 80 mM KCl, 10 mM LiCl, 0.04% DOC and 2 mM CaCl2 in the absence or presence of the purified recombinant human PLC-β2 (prepared as described hereafter) or cytosolic human PLC-β2 from […]. Reduction of radioactivity was monitored by a Packard TopCount instrument (Packard Instrument Company, Conn., USA). […] The cells were grown in Grace's media supplemented with 10% (v/v) fetal bovine serum, 3.3 g/l yeastolate, 3.3 g/l lactalbumin hydrosylate, glutamine (6.4 mM final), 50 μg/ml gentamicin, and 50 μg/ml kanamycin. Suspension of Sf9 cells (1.0×10^6 cells/ml) were infected with 5 pfu/cell of recombinant baculovirus encoding PLC-β2 and incubated at 27° C. for 72 h. The cells were collected by centrifugation (500×g, 7 min, 4° C.) and disrupted by hypotonic lysis buffer containing 20 mM Tris/HCl, pH 7.4, 5 mM MgCl2, 2 mM EGTA, 200 μM PMSF, 200 μM benzamidine and 1 μM pepstatin A. The lysate was sonicated on ice and the nuclei and unbroken cells removed by centrifigation (500×g, 5 min, 4C.). The supernatant was recovered and clarified by centrifugation (34,000 rpm, 60 min, 4C.). The supernatant was used as a crude cytosolic fraction (Paterson, A., Boyer, J. L., Watts, V. J., Morris, A. J., Price, […]. (1995) Concentration of enzyme-dependent activation of PLC β1 and PLC β2 by Gα11 and βγ subunits. Cellular Signalling 7, 709-720). Crude cytosol prepared from Sf9 cells expressing PLC-β2 was purified initially by chromatography on a 10 ml column of Q-Sepharose FF, equilibrated in buffer A (25 mM HEPES, pH 7.2,2 mM DTT, 2 mM EDTA, 2 mM EGTA, 200 μM PMSF, 200 μM benzamidine, 1 μM pepstatin A containing 10 mM NaCl). The column was washed with 20 ml of equilibration buffer and eluted with a 200-ml gradient of 110-410 mM NaCl in buffer A. The fractions containing PLC activity were pooled and diluted with buffer A. The diluted enzyme was applied to a 4 ml column of heparin-SepharoseCL-6B equilibrated in buffer A and the column washed with 70 ml of buffer A. The column was eluted with 80 ml of gradient of 0-1.0 M NaCl in buffer A, the column eluate collected in 3 ml fractions. […]

T1 sequence (Q00722 whole entry): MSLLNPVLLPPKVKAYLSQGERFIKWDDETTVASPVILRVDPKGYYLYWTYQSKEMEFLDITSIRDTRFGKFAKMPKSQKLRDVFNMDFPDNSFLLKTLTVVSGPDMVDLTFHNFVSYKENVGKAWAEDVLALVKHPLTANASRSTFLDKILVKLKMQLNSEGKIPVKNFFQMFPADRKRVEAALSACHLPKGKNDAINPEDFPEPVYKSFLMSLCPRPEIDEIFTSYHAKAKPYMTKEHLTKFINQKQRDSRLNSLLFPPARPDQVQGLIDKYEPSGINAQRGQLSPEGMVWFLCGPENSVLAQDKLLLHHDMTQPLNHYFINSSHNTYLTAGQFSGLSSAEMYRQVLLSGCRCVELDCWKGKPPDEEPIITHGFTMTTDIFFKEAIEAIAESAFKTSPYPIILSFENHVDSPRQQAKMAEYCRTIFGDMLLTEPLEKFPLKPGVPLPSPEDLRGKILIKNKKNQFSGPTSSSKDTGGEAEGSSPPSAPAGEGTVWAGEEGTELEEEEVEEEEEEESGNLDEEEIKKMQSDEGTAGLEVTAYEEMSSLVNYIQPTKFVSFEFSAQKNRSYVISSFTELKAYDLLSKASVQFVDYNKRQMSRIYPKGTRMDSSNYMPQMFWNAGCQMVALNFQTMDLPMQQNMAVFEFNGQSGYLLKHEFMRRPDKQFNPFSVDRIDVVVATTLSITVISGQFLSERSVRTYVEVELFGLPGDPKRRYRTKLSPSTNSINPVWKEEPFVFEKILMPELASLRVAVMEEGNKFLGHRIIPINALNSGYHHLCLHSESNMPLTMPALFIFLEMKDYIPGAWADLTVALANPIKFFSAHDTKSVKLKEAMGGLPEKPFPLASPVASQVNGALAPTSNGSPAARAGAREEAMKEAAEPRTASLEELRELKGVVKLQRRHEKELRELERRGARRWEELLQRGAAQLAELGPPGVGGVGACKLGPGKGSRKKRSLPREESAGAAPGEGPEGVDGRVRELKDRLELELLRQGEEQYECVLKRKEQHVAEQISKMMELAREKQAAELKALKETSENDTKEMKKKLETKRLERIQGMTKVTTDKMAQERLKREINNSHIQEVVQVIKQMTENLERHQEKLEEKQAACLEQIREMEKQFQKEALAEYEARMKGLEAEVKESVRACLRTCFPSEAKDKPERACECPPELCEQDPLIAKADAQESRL

| Compound | IC50 |
| --- | --- |
| CC(NC(=O)Nc1cc(C(N)=O)ccc1N1CCN(C(c2ccc(F)cc2)c2ccc(F)cc2)CC1)c1ccccc1 (centres unmarked) [Cpd 16, 4-[4-[bis(4-fluorophenyl)methyl]-1-piperazinyl]-3-[[[(1-phenylethyl)amino]carbonyl]amino]-benzamide] | 6 µM |
| Cc1ccc(NC(=O)Nc2cc(C(N)=O)ccc2N2CCN(C(c3ccc(F)cc3)c3ccc(F)cc3)CC2)c(C)c1 [Cpd 15, 4-[4-[bis(4-fluorophenyl)methyl]-1-piperazinyl]-3-[[[(2,4-dimethylphenyl)amino]carbonyl]amino]-benzamide] | 4.8 µM |
| NC(=O)c1ccc(N2CCN(C(c3ccccc3)c3ccccc3)CC2)c(NC(=O)Nc2ccc([N+](=O)[O-])cc2)c1 [Cpd 5, 4-[4-(diphenylmethyl)-1-piperazinyl]-3-[[[(4-nitrophenyl)amino]carbonyl]amino]-benzamide] | 9.9 µM |
| NC(=O)c1ccc(N2CCN(C(c3ccc(F)cc3)c3ccc(F)cc3)CC2)c(NC(=O)Nc2ccccc2F)c1 [Cpd 4, 4-[4-[bis(4-fluorophenyl)methyl]-1-piperazinyl]-3-[[[(2-fluorophenyl)amino]carbonyl]amino]-benzamide] | 2.1 µM |
| Cc1ccc(NC(=O)Nc2cc(C(=O)N3CCNCC3)ccc2N2CCN(C(c3ccccc3)c3ccccc3)CC2)c(C)c1 [Cpd 41, N-(2,4-dimethylphenyl)-N′-[2-[4-(diphenylmethyl)-1-piperazinyl]-5-(1-piperazinylcarbonyl)phenyl]-urea] | 1.6 µM |
| NCCNC(=O)c1ccc(N2CCN(C(c3ccccc3)c3ccccc3)CC2)c(NC(=O)Nc2ccccc2)c1 [Cpd 26, N-(2-aminoethyl)-4-[4-(diphenylmethyl)-1-piperazinyl]-3-[[(phenylamino)carbonyl]amino]-benzamide] | 1.9 µM |
| O=C(Nc1ccccc1)Nc1cc(C(=O)N2CCCNCC2)ccc1N1CCN(C(c2ccccc2)c2ccccc2)CC1 [Cpd 24, N-[2-[4-(diphenylmethyl)-1-piperazinyl]-5-[(hexahydro-1H-1,4-diazepin-1-yl)carbonyl]phenyl]-N′-phenylurea] | 0.87 µM |
| CC(c1ccccc1)N1CCN(c2ccc(C(=O)N3CCNCC3)cc2NC(=O)NC2CCCCC2)CC1 (centres unmarked) [Cpd 53, N-cyclohexyl-N′-[2-[4-(1-phenylethyl)-1-piperazinyl]-5-(1-piperazinylcarbonyl)phenyl]-urea] | > 25 µM |
| O=C(Nc1cc(C(=O)N2CCNCC2)ccc1N1CCN(C2CCCCC2)CC1)NC1CCCCC1 [Cpd 54, N-cyclohexyl-N′-[2-(4-cyclohexyl-1-piperazinyl)-5-(1-piperazinylcarbonyl)phenyl]-urea] | > 25 µM |

Continued, values first:

| IC50 | Compound |
| --- | --- |
| > 25 µM | CC(C)NC(=O)Nc1cc(C(=O)N2CCNCC2)ccc1N1CCN(C(c2ccccc2)c2ccccc2)CC1 [Cpd 66, N-[2-[4-(diphenylmethyl)-1-piperazinyl]-5-(1-piperazinylcarbonyl)phenyl]-N′-(1-methylethyl)urea] |
| 1.6 µM | O=C(Nc1ccc(C(=O)N2CCNCC2)cc1N1CCN(C(c2ccccc2)c2ccccc2)CC1)NC1CCCCC1 [Cpd 92, N-cyclohexyl-N′-[2-[4-(diphenylmethyl)-1-piperazinyl]-4-(1-piperazinylcarbonyl)phenyl]-urea] |
| ~10 µM | NC(=O)c1ccc(N2CCCN(C(c3ccc(F)cc3)c3ccc(F)cc3)CC2)c(NC(=O)NC2CCCCC2)c1 [Cpd 82, 4-[4-[bis(4-fluorophenyl)methyl]hexahydro-1H-1,4-diazepin-1-yl]-3-[[(cyclohexylamino)carbonyl]amino]-benzamide] |
| 0.81 µM | O=C(Nc1ccccc1)Nc1ccc(C(=O)N2CCNCC2)cc1N1CCCN(C(c2ccc(F)cc2)c2ccc(F)cc2)CC1 [Cpd 89, N-[2-[4-[bis(4-fluorophenyl)methyl]hexahydro-1H-1,4-diazepin-1-yl]-4-(1-piperazinylcarbonyl)phenyl]-N′-phenyl-urea] |
| > 25 µM | C[C@H](NC(=O)Nc1cc(C(=O)N2CCNCC2)ccc1N1CCN(C(c2ccccc2)c2ccccc2)CC1)c1ccccc1 [Cpd 64, N-[2-[4-(diphenylmethyl)-1-piperazinyl]-5-(1-piperazinylcarbonyl)phenyl]-N′-[(1S)-1-phenylethyl]-urea] |

Source: US20040235855A1, “Phospholipase C inhibitors for use in treating inflammatory disorders” (priority 2003, published 2004)
